Converted amounts (≈) assume the structure as drawn. Where two headings read alike, the source gives them in different places. Where only a bound is given, the exact number is not on record here.

One data set has as its system Caco-2 cells. Put plainly: Permeability and transporter substrate test in Caco-2 cells (ABBA). The conditions noted are these: Caco-2. The class given is in vitro ADME. The protocol: (§1) Apparent permeability coefficient (Papp, cm/s) and efflux ratio were calculated using Microsoft Excel.
A general note: Passage across Caco-2 layers is used to estimate intestinal permeability.

Test in data set [1]: as above
It counts as in vitro ADME. The conditions noted are these: human, pH 7.4; for Papp A→B at 2 h, 5 µM: Caco-2, A to B, read-out: Average Papp PappA-B; for Papp B→A at 2 h, 5 µM: Caco-2, B to A, read-out: Average Papp PappB-A; for efflux ratio at 2 h, 5 µM: Caco-2, Papp(B-A)/Papp(A-B), read-out: Efflux Rate (ERa). As to the method:
as §1

Data set [2] has as its system pancreatic cancer cell line (PSN1). Nature of the data set: Proliferation inhibitory activity on cell line PSN1 (CellTiter-Glo, 72 hours). It counts as cell-based. The conditions noted are these: for IC50: Homo sapiens, PSN1 cell proliferation; for Max Inhibition Percentage: PSN1 cells. The protocol: • a) Adherent cells need to be digested and centrifuged, while suspension cells can be directly centrifuged; • b) Resuspend with complete culture medium and count using an automatic cell counter; • c) Plate 6,000 cells per well for PSN1, and dilute the cell suspension to the required density; • d) Add 100 µL of cells per well, and culture overnight at 37°C in a 5% CO2 incubator to stabilize and balance the cells.
• a) Prepare the compound with DMSO as a solution of 200-fold final concentration; • b) Dilute the 200-fold compound to a 3-fold final concentration with complete culture medium; • c) Add 50 µL of the compound per well, use wells with the same volume of culture medium as controls, and continue culturing in a 37°C, 5% CO2 incubator for 72 hours.
• a) Equilibrate the cell plate and CTG reagent to room temperature; • b) Add 30 µL of CellTiter-Glo® reagent per well; • c) Incubate at room temperature for 15 minutes; • d) Detect with a microplate reader.
• 1) Calculate IC50 using GraphPad Prism 8; • 2) %Inh = (1-(Raw data - Meanmin) / (Meanmax - Meanmin))×100; • 3) Meanmax is the positive control well with only cells and the same volume of culture medium; • 4) Meanmin is the negative control well with only culture medium; • 5) Raw data refers to the signal values of wells with added compounds. For two replicate wells, they are denoted as Raw1 and Raw2.
(In ATP-based viability assays light output follows the ATP content of the culture.)

Data set [3] in a line: Thermodynamic solubility test. It counts as physicochemical. The conditions noted are these: phosphate buffer, aqueous buffer, thermodynamic from solid, pH 7.4, 25°C. The protocol: Weigh 7.098 g Na2HPO4 (Solution A) and dissolve in 500 mL ultrapure water via sonication; weigh 3.40 g KH2PO4 (Solution B) and dissolve in 250 mL ultrapure water via sonication. Slowly add Solution B dropwise to Solution A and adjust the pH to 7.40 ± 0.05.
Shake at 1100 rpm, 25°C for 5 minutes; • i) Add 10 µL of the 1 mg/mL DMSO sample and 10 µL of buffer to 980 µL of methanol, then dilute 10-fold with methanol:water (1:1) as the standard sample for LC-MS/MS analysis.
Solubility was calculated using Excel. Solubility(μM) = (Areafiltered × DFfiltered)/(Areastd × DFstd) × [std] × DFstd [formula]

The nature of data set [4]: Pharmacokinetic study in mice (IV and PO, plasma LC-MS/MS).
Protocol: The objective of this study is to investigate the pharmacokinetic properties of the disclosed compounds after tail vein intravenous injection (IV) and oral administration (PO) in female CD1 mice. Plasma was sampleed at 0, 0.083, 0.25, 0.5, 1, 2, 4, 7 and 24 hours post-dosing, and the drug concentrations in plasma at different time points were detected by LC-MS/MS, and the relevant pharmacokinetic parameters were calculated using WinNonlin software.
Experimental female CD1 mice were purchased from SPF Laboratory Animal Technology Co., Ltd., aged 6-8 weeks with body weights of 20-30 g. The female CD1 mice were housed in a controlled environment (set temperature at 20-25°C and relative humidity at 40-70%). A 12-hour light/12-hour dark cycle was maintained unless interrupted by study-related events.
Compound solutions are prepared in an ultra-clean workbench and prepared immediately before use, and mixed thoroughly prior to use to ensure formulation homogeneity.
Vehicle composition: 10% DMSO+90% (20%SBE-β-CD) Table 4. Doses Used in IV Administration
Vehicle composition: 10% DMSO + 90% (20%SBE-β-CD) Table 5. Doses Used in PO Administration
Vehicle composition: 0.5% MC + 1% Tween-20 Table 6. Doses Used in PO Administration
Prior to the experiment, the animals were randomly grouped. The mice were fasted for 12 hours before drug administration, and free feeding was resumed 4 hours after administration.
All blood samples were transferred into plastic microcentrifuge tubes containing anticoagulant (EDTA-K2), and then centrifuged at 4000 g for 5 minutes at 4°C. The supernatant was transferred into a microcentrifuge tube without anticoagulant, and the plasma was stored in a -75±15°C refrigerator until detection.
The blood samples were purified by HPLC and analyzed by mass spectrometry to obtain the plasma concentration-time curve of the disclosed compound.
The pharmacokinetic parameters were estimated by non-compartmental model method (calculated by Phoenix WinNonlin software).
A further data set concerns PSN1 cells. It counts as in vivo. The conditions noted are these: for mice died: 8 mice per group; for TGI: endpoint (day 31), TGITV. The protocol: • M-NSG mice: SPF grade, female, 6-8 weeks old, weighing 16-20 g, purchased from Shanghai Model Organisms Technology Co., Ltd. • PSN1 cells: purchased from ATCC;
PSN1 cells were cultured in an incubator at 37°C and 5% CO2 in RPMI-1640 medium containing 10% inactivated fetal bovine serum. Cells were subcultured by passaging into new culture dishes every 2 to 3 days when they reach confluent.
• 8.2.3.1 PSN1 cells in the logarithmic growth phase were taken and resuspended in PBS. The cell suspension was inoculated subcutaneously into the right flank of M-NSG mice using a 1mL syringe (inoculated cell count: 5E6/mouse + 30%M). The survival status of the mice and the subcutaneous tumor formation were observed every other day. • 8.2.3.2 On the day of grouping, mice were randomly divided into 8 groups with 8 mice in each group based on the average tumor volume (~190 mm^3) and mouse body weight; • 8.2.3.3 The mice were dosed according to the grouping scheme, all by intragastric administration. […]. The hair condition and status of the mice were observed, and the body weight and tumor size were recorded twice a week to calculate TGI%. • 8.2.3.4 Grouping of Test Animals
When the average tumor volume reached ~ 190 mm^3, mice with moderate individual tumor volume were selected for inclusion in the group. The animals were randomly assigned to experimental groups according to tumor volume and mouse weight, with 8 mice in each group. Administration started one day after grouping.
TV = 1/2 × a × b2 [formula] wherein: a represents the long diameter of the tumor; b represents the short diameter of the tumor.
RTV = Vt /Vinitial × 100(%) [formula]
T/C(%) = (TRTV/CRTV) × 100% [formula]
TGI = [1−(TVt/TVinitial)/([…])] × 100% [formula]
wherein, TVt represents the tumor volume of the treatment group at each measurement; TVinitial represents the tumor volume of the treatment group at the time of grouping and administration; CVt represents the tumor volume of the control group at each measurement; CVinitial represents the tumor volume of the control group at the time of grouping and administration.
Body Weight Change Rate = (BWfinal-BWinitial) / BWinitial × 100% [formula] wherein, BWinitial represents the animal body weight at the time of grouping and administration; BWfinal represents the animal body weight at each measurement.
The original data of measurement and observation must be recorded. The analysis and processing are based on the original data, and the results are presented as mean and standard error of the mean (Mean ± SEM). T-test is used to analyze the difference in tumor volume between the control group and the treatment group. P < 0.05 indicates statistical significance.

The mark [5] stands for this setting: 60 mg/kg p.o. QD*6 times, during administration.

As to `CN1CCN(c2ccc(OC(F)(F)F)c(Nc3ncc4c(n3)-c3c(c(C(N)=O)nn3CCO)CC4)c2)CC1` [NMS-P937, onvansertib, reference compound], the “Classification Efflux Transporter Substrate” value with Caco-2 cells is listed as “Probable (ERa ≧ 2)”. In addition, in data set [1], the Papp A→B at 2 h, 5 µM amounted to 6.09 ×10⁻⁶ cm/s; the Papp B→A at 2 h, 5 µM amounted to 34.2 ×10⁻⁶ cm/s; the efflux ratio at 2 h, 5 µM came to 5.61. The compound further registered a half-inhibitory concentration (IC50) in data set [2] of 53.7 nM. In addition, the “Max Inhibition Percentage” value in data set [2] (first column of this head) is reported as 85.9. In data set [2] (second column of this head), the “Max Inhibition Percentage” value was 2.3. Further, in data set [3], the solubility at 24 h is 24.8 µg/mL (≈ 46.6 µM). This compound came in with a F in data set [4] (PO 5 mg/kg vs IV 2 mg/kg) of 20.5%. Further, the F in data set [4] (PO 10 mg/kg vs IV 10 mg/kg) is on record as 27.1%. Moreover, in the data set with PSN1 cells (60 mg/kg p.o. QD*6 times), the “Mouse Mortality Rate” value stood at 50% and the mice died result is “half”. Further, the body weight loss result with PSN1 cells (setting [5]) is on record as “decreased severely”.
In the case of `[2H]C1([2H])N(C)C([2H])([2H])C([2H])([2H])N(c2ccc(OC(F)(F)F)c(Nc3ncc4c(n3)-c3c(c(C(N)=O)nn3CCO)CC4)c2)C1([2H])[2H]` [CPD06], the “Classification Efflux Transporter Substrate” value in the data set on Caco-2 cells was “Probable (ERa ≧ 2)”. Moreover, in data set [1], the Papp A→B at 2 h, 5 µM came to 5.18 ×10⁻⁶ cm/s; the Papp B→A at 2 h, 5 µM was 34.7 ×10⁻⁶ cm/s; the efflux ratio at 2 h, 5 µM came out at 6.71. The same compound displayed an IC50 in data set [2] of 57 nM. In addition, in data set [2] (first column of this head), the “Max Inhibition Percentage” value is given as 93.7. Also, in data set [2] (second column of this head), the “Max Inhibition Percentage” value stood at 13.7. Also, the solubility at 24 h in data set [3] was found to be 22.6 µg/mL (≈ 41.8 µM). In data set [4] (PO 10 mg/kg vs IV 10 mg/kg), this compound returned an F of 43.1%. Further, in the data set on PSN1 cells (60 mg/kg p.o. QD*6 times), the “Mouse Mortality Rate” value is 0%, the mice died entry is “No mice died” and the TGI amounted to 53%. This compound came in with a body weight loss in the data set with PSN1 cells (setting [5]) not above 15%.
On to `[2H]C1([2H])CN(c2ccc(OC(F)(F)F)c(Nc3ncc4c(n3)-c3c(c(C(N)=O)nn3CCO)CC4)c2)C([2H])([2H])[C@H]2CCCN21` [CPD04], for which, in the data set on Caco-2 cells, the “Classification Efflux Transporter Substrate” value is on record as “Probable (ERa ≧ 2)”. In data set [1], the Papp A→B at 2 h, 5 µM turned out to be 4.2 ×10⁻⁶ cm/s; the Papp B→A at 2 h, 5 µM amounted to 25.1 ×10⁻⁶ cm/s; the efflux ratio at 2 h, 5 µM is 5.98. The compound also showed an IC50 in data set [2] of 105 nM. The “Max Inhibition Percentage” value in data set [2] (first column of this head) was 87.6. Besides, the “Max Inhibition Percentage” value in data set [2] (second column of this head) was found to be 1.3. In data set [3], the solubility at 24 h came to 3 µg/mL (≈ 5.33 µM). This compound returned a F in data set [4] (PO 10 mg/kg vs IV 10 mg/kg) of 42.8%. Further, in the data set on PSN1 cells (90 mg/kg p.o. QD*6 times), the “Mouse Mortality Rate” value is recorded as 0%, the mouse death result is reported as “no mouse death was found” and the TGI turned out to be 40%. Besides, in the data set with PSN1 cells (90 mg/kg p.o. QD*6 times, throughout the period), the body weight loss entry was “no body weight loss was observed”.

The term IC50 denotes the midpoint of a concentration-inhibition curve. Read a high IC50 as lower potency. One may read the solubility as the concentration that dissolves in the medium under given conditions. Lower therefore signals little dissolved substance.

Source of the values: patent EP4653443A1, “STEREOISOMER AND DEUTERATED DERIVATIVE OF PYRAZOLOQUINAZOLINE COMPOUND AND USE” (Phil Rivers Technology Co., Ltd, priority 2023, dated 2024).
